# Test results published in patent US12612380B2, “Non-lysosomal glucosylceramidase inhibitors and uses thereof” (ALECTOS THERAPEUTICS INC., priority 2019, dated 2026).
# Target: T1, GBA2 (Homo sapiens, UniProt Q9HCG7)
# T1 sequence (Q9HCG7 1-927): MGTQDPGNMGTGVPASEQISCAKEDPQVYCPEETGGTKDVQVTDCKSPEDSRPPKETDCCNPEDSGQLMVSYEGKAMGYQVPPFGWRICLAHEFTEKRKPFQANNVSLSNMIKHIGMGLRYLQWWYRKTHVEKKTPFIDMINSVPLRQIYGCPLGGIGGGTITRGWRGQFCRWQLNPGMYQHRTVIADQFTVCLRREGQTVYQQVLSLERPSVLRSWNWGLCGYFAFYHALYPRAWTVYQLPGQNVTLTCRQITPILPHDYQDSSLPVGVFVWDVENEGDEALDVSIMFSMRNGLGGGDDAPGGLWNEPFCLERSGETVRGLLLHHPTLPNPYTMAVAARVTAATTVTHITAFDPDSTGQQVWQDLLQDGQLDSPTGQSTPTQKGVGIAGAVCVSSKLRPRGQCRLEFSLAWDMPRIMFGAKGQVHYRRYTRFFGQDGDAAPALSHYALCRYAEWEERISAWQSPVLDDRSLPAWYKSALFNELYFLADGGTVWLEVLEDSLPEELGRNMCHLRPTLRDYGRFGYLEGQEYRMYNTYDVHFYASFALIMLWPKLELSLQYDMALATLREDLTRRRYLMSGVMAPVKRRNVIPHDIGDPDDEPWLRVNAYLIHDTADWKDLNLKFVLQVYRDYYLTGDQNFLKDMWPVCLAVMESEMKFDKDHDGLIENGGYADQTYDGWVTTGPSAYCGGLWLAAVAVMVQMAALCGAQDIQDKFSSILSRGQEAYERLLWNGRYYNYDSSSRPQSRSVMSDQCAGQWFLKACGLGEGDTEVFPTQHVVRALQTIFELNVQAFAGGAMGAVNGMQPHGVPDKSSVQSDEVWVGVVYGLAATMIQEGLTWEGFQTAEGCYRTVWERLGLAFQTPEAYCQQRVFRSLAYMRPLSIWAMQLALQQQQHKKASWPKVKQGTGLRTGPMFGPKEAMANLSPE
# Experiment: Determination of IC50 values for inhibition of GBA2 in cell lysate
# Assay type: biochemical
# Design: host or cells: HEK293T (lentiviral transduction, puromycin selection); used as cellular homogenate
# Settings: cellular homogenate of HEK293T cells overexpressing human GBA2, 250 μM 4-methylumbelliferone-β-D glucopyranoside, pH 5.5, 37° C., GCase inhibitor present; read-out: GBA2 IC50
# Description: Assay for Determination of IC50 Values for Inhibition of GBA2 in Cell Lysate
# Stable GBA2-expressing HEK293T cells were generated as follows. The PCR-amplified human GBA2 (GBA2 nucleotide accession number BC011363) using the following primers: Sense 5′---CGCAAATGGGCGGTAGGCGTG (SEQ ID NO:2)---3′ and antisense 5′---TAGTCAGCCATGGGGCGGAGA (SEQ ID NO:3)---3′) was cloned into pLenti-GIII-CMV by ABM Inc. The correctness of the construct was verified by sequencing. Lentivirus particles containing GBA2 in the pLenti-GIII-CMV plasmid were prepared using a third Generation Virus Packaging Mix (ABM cat #LV053-G074) in HEK293T cells and supplied as a virus particle suspension. The virus suspension was used for infection of HEK293T cells. Cell populations stably expressing human GBA2 were selected using puromycin for several weeks as determined by activity assays and western blot.
# Various concentrations of test compounds were prepared in DMSO and then diluted into buffer consisting of 100 mM citric acid, 200 mM disodium phosphate with 1% v/v C10E6, pH 5.5. Cellular homogenates (0.25 mg/mL) of the stable HEK293T-overexpressing GBA2 cell line were preincubated for 10 min on ice with an inhibitor of GCase (20 μM (6R,7R,8S)-8-ethyl-4-azaspiro[2.5]octane-6,7-diol). The reaction solution consisted of 20 μL of 750 μM 4-methylumbelliferone-β-D glucopyranoside in 5% DMSO in the same buffer, 20 μL of GBA2-cellular homogenate pre-treated with (6R,7R,8S)-8-ethyl-4-azaspiro[2.5]octane-6,7-diol and 20 μL of various concentrations of test compound in 10% DMSO in the same buffer. The final concentrations in the reaction were 0.083 mg/mL GBA2-cellular homogenate, 250 μM 4-methylumbelliferone-β-D glucopyranoside, and various concentrations of inhibitor. The inhibitor and GBA2-cellular homogenate were preincubated together for 5 min at 37° C. The reaction was initiated by addition of substrate and allowed to proceed for 20 min at 37° C. to assess GBA2 activity. Reactions were stopped by the addition of an equal volume (60 μL) of 0.5 M NaOH, 0.3 M glycine, pH 10.5. Fluorescence was measured on a Biotek Synergy H4 plate reader at wavelengths of 365 nm for excitation and 450 nm for emission. Incubations without added enzyme or added inhibitors were used to define no enzyme activity and maximal enzyme activity, respectively. IC50 values were determined by fitting the data to a log[inhibitor concentration] versus response curve using GraphPad Prism. IC50 values were calculated as the concentration of inhibitor required to inhibit GBA2 activity by 50%.
row,Compound,IC50 [nM]
1,"C[C@@H]1[C@@H](O)[C@H](O)[C@@H](O)CN1CC1CCCCC1 [Example 1, (2R,3R,4R,5S)-1-(cyclohexylmethyl)-2-methylpiperidine-3,4,5-triol]",100 to 1000
2,"C[C@@H]1[C@@H](O)[C@H](O)[C@@H](O)CN1CC1CCC(C)(C)CC1 [Example 2, (2R,3R,4R,5S)-1-((4,4-dimethylcyclohexyl)methyl)-2-methylpiperidine-3,4,5-triol]",100 to 1000
3,"C[C@@H]1[C@@H](O)[C@H](O)[C@@H](O)CN1CC1CCC(F)(F)CC1 [Example 3, (2R,3R,4R,5S)-1-((4,4-difluorocyclohexyl)methyl)-2-methylpiperidine-3,4,5-triol]",1000 to 25000
4,"C[C@@H]1[C@@H](O)[C@H](O)[C@@H](O)CN1CC1CCC(Cl)(Cl)CC1 [Example 4, (2R,3R,4R,5S)-1-((4,4-dichlorocyclohexyl)methyl)-2-methylpiperidine-3,4,5-triol]",< 100
5,"CCC1CCC(CN2C[C@H](O)[C@@H](O)[C@H](O)[C@H]2C)CC1 (stereo partly drawn) [Example 5, (2R,3R,4R,5S)-1-((4-ethylcyclohexyl)methyl)-2-methylpiperidine-3,4,5-triol]",< 100
6,"C=C[C@H]1CC[C@@H](CN2C[C@H](O)[C@@H](O)[C@H](O)[C@H]2C)CC1 [Example 6, (2R,3R,4R,5S)-2-methyl-1-(((1s,4S)-4-vinylcyclohexyl)methyl)piperidine-3,4,5-triol]",< 100
7,"CC(C)[C@H]1CC[C@H](CN2C[C@H](O)[C@@H](O)[C@H](O)[C@H]2C)CC1 [Example 8, (2R,3R,4R,5S)-1-(((1r,4R)-4-isopropylcyclohexyl)methyl)-2-methylpiperidine-3,4,5-triol]",< 100
8,"C[C@@H]1[C@@H](O)[C@H](O)[C@@H](O)CN1C[C@H]1CC[C@H](C(C)(C)C)CC1 [Example 10, (2R,3R,4R,5S)-1-(((1r,4R)-4-(tert-butyl)cyclohexyl)methyl)-2-methylpiperidine-3,4,5-triol]",< 100
9,"C[C@@H]1[C@@H](O)[C@H](O)[C@@H](O)CN1C[C@H]1CC[C@H](C(C)(C)F)CC1 [Example 14, (2R,3R,4R,5S)-1-(((1r,4R)-4-(2-fluoropropan-2-yl)cyclohexyl)methyl)-2-methylpiperidine-3,4,5-triol]",< 100
10,"C[C@@H]1[C@@H](O)[C@H](O)[C@@H](O)CN1C[C@H]1CCC[C@H](C(F)(F)F)C1 [Example 15, (2R,3R,4R,5S)-2-methyl-1-(((trans)-3-(trifluoromethyl)cyclohexyl)methyl)piperidine-3,4,5-triol]",< 100
11,"C[C@@H]1[C@@H](O)[C@H](O)[C@@H](O)CN1C[C@H]1CCC[C@@H](C(F)(F)F)C1 [Example 16, (2R,3R,4R,5S)-2-methyl-1-(((cis)-3-(trifluoromethyl)cyclohexyl)methyl)piperidine-3,4,5-triol]",100 to 1000
12,"CO[C@H]1CC[C@@H](CN2C[C@H](O)[C@@H](O)[C@H](O)[C@H]2C)CC1 [Example 17, (2R,3R,4R,5S)-1-(((1s,4S)-4-methoxycyclohexyl)methyl)-2-methylpiperidine-3,4,5-triol]",1000 to 25000
13,"CO[C@H]1CC[C@H](CN2C[C@H](O)[C@@H](O)[C@H](O)[C@H]2C)CC1 [Example 18, (2R,3R,4R,5S)-1-(((1r,4R)-4-methoxycyclohexyl)methyl)-2-methylpiperidine-3,4,5-triol]",1000 to 25000
14,"COCC1CCC(CN2C[C@H](O)[C@@H](O)[C@H](O)[C@H]2C)CC1 (stereo partly drawn) [Example 19, (2R,3R,4R,5S)-1-((4-(methoxymethyl)cyclohexyl)methyl)-2-methylpiperidine-3,4,5-triol]",100 to 1000
15,"C[C@@H]1[C@@H](O)[C@H](O)[C@@H](O)CN1C[C@H]1CC[C@H](C2CC2)CC1 [Example 21, (2R,3R,4R,5S)-1-(((1r,4R)-4-cyclopropylcyclohexyl)methyl)-2-methylpiperidine-3,4,5-triol]",< 100
16,"C[C@@H]1[C@@H](O)[C@H](O)[C@@H](O)CN1CC1CCC(c2ccccc2)CC1 (stereo partly drawn) [Example 22, (2R,3R,4R,5S)-2-methyl-1-((4-phenylcyclohexyl)methyl)piperidine-3,4,5-triol]",< 100
17,"C[C@@H]1[C@@H](O)[C@H](O)[C@@H](O)CN1CC1CCC2(CC1)CC2 [Example 23, (2R,3R,4R,5S)-2-methyl-1-(spiro[2.5]octan-6-ylmethyl)piperidine-3,4,5-triol]",100 to 1000
18,"C[C@@H]1[C@@H](O)[C@H](O)[C@@H](O)CN1CC1CCC2(CCCC2)CC1 [Example 25, (2R,3R,4R,5S)-2-methyl-1-(spiro[4.5]decan-8-ylmethyl)piperidine-3,4,5-triol]",< 100
19,"C[C@@H]1[C@@H](O)[C@H](O)[C@@H](O)CN1C[C@H]1CC[C@]2(CC1)COC(C)(C)C2 [Example 26, (2R,3R,4R,5S)-1-(((5S,8s)-3,3-dimethyl-2-oxaspiro[4.5]decan-8-yl)methyl)-2-methylpiperidine-3,4,5-triol]",100 to 1000
20,"C[C@@H]1[C@@H](O)[C@H](O)[C@@H](O)CN1CC1CCc2ccccc2C1 (stereo partly drawn) [Example 27, (2R,3R,4R,5S)-2-methyl-1-((1,2,3,4-tetrahydronaphthalen-2-yl)methyl)piperidine-3,4,5-triol]",< 100
21,"C[C@@H]1[C@@H](O)[C@H](O)[C@@H](O)CN1CC1Cc2ccccc2C1 [Example 28, (2R,3R,4R,5S)-1-((2,3-dihydro-1H-inden-2-yl)methyl)-2-methylpiperidine-3,4,5-triol]",< 100
22,"C[C@@H]1[C@@H](O)[C@H](O)[C@@H](O)CN1CCC1CCCCC1 [Example 29, (2R,3R,4R,5S)-1-(2-cyclohexylethyl)-2-methylpiperidine-3,4,5-triol]",100 to 1000
23,"C[C@@H]1[C@@H](O)[C@H](O)[C@@H](O)CN1CCC1CCC(F)(F)CC1 [Example 30, (2R,3R,4R,5S)-1-(2-(4,4-difluorocyclohexyl)ethyl)-2-methylpiperidine-3,4,5-triol]",100 to 1000
24,"C[C@@H]1[C@@H](O)[C@H](O)[C@@H](O)CN1CC[C@H]1CC[C@@H](C(F)(F)F)CC1 [Example 31, (2R,3R,4R,5S)-2-methyl-1-(2-((1s,4S)-4-(trifluoromethyl)cyclohexyl)ethyl)piperidine-3,4,5-triol]",< 100
25,"C[C@@H]1[C@@H](O)[C@H](O)[C@@H](O)CN1CC[C@H]1CC[C@H](C(F)(F)F)CC1 [Example 32, (2R,3R,4R,5S)-2-methyl-1-(2-((1r,4R)-4-(trifluoromethyl)cyclohexyl)ethyl)piperidine-3,4,5-triol]",< 100
26,"C[C@@H]1[C@@H](O)[C@H](O)[C@@H](O)CN1CCC12CC3CC(CC(C3)C1)C2 [Example 33, (2R,3R,4R,5S)-1-((2-adamantan-1-yl)ethyl)-2-methylpiperidine-3,4,5-triol]",< 100
